What all share (assay type): cell-based, human
For one test, the system named is SKBR3 cells. Put plainly: SKBR3 cell viability, sulforhodamine B assay. To be noted: for IC50: Homo sapiens, SK-BR-3, 72 h treatment. As for the experimental part: MCF7 (ER^+, PR^+, HER2^−), SKBR3 (ER^−, PR^+, HER2^+) and MDA-MB231 (ER^−, PR^−, HER2^−) human BC cells and MCF10A non-cancer breast epithelial cells were available in our laboratory. MCF7, SKBR3 and MDA-MB231 cells were cultured in DMEM, supplemented with 10% FBS, 2 mM glutamine, 100 units/ml penicillin and 100 units/ml streptomycin. MCF10A cells were cultured in MEBM, supplemented with 0.4% BPE, 0.1% hEGF, 0.1%, Insulin, 0.1% Hydrocortisone and 0.1% GA-1000. […] Treatment with SER were carried out in culture conditions. Treatment with Tamoxifen and/or SER were carried out upon 48 h estrogen starvation in phenol-red free medium supplemented with 10% Charcoal Stripped (C/S) FBS, 2 mM glutamine, 100 units/ml penicillin and 100 units/ml streptomycin.
Cells were fixed with 50% trichloroacetic acid for at least 2 h at 4 °C, washed with distilled and de-ionized water, air-dryed and stained 30 min with 0.4% sulforhodamine B in 1% acetic acid. Unbound dye was removed and 10 mM tris-HCl solution (pH 7.5) was added to dissolve the protein-bound dye. Cell survival was assessed by optical density determination at 510 nm using a microplate reader.
Fig. 3 Effect of SER on SKBR3 cell viability. […] Cell viability was assessed, after 72 h, by sulforhodamine B assay (see Methods).

The test system of the next test is HT2C receptor. Briefly: 5-HT2C protein levels, Western blot. To be noted: 72 h, MCF7, Tamoxifen-cultured MCF7 and MCF7-R cells. As for the experimental part:
RIPA buffer (Promega, Madison, Wisconsin, USA) was used for proteins’ extraction. Lysates ([…] protein/sample) were blotted with anti-5HT2C (1:500). Total lysates were normalized using anti-Vinculin (1:10000). The autoradiographs shown were obtained by ECL kit (Bio-Rad, Hercules, CA, USA).
Figure S4. 5-HT2C protein in MCF7, Tamoxifen-cultured MCF7 and MCF-R cells in absence or in presence of SER.
Cells were treated with 5µM SER79 or 20µM SER68. Alter 72h, cell lysa te swere obtained and 5-HT2C protein le ve lswere measured by western blot analysis. Vinculin was used for protein le ve ls normalization. […]
(1 picture or pasted object on this page, not shown here)
In general terms: In western blotting, separated proteins are transferred to a membrane and probed.

A further test has as its system CTGF. Put plainly: CTGF mRNA levels in MCF7 cells, qPCR. Particulars: E2 100 nM, 72 h, estrogen-starved MCF7; for CTGF mRNA levels lower compared with untreated cells: SER at IC50 dose. The procedure: Total RNA was isolated from cells, quantified (NanoDrop spectrophotometer, Life Technologies, Carlsbad, CA, USA) and reverse transcribed according to the manufacturer’s instructions. Semiquantitative PCR and qPCR assays were performed according to manufacturer’s instructions for Bio-Rad T100 thermal cycler and CFX Connect Real Time system (Biorad, Hercules, CA, USA), respectively. Relative gene expression quantification was measured by 2^−ΔΔCt method normalizing for the reference sample using Rps23 (Ribosomal Protein S23) as housekeeping gene.
After 72 h, cell cycle was assessed by Propidium Iodide staining (see Methods). […] As positive control, the cells were treated with E2 and SER alone (without Tamoxifen, dotted line). After 72 h, cell viability was assessed by sulforhodamine B assay (see Methods). […] After 72 h, mRNA levels of CTGF were determined by qPCR (see Methods and Table 1). Data were normalized on Ribosomal Protein S23 (Rps23) gene as internal standard and were reported as CTGF mRNA levels in MCF7 treated with SER relative to those in untreated cells (dotted line). a-c Data represent the mean ± SD of at least three independent triplicate experiments. * denotes statistically significant values compared with (a) percentage of untreated cells in G0/G1, S and G2/M cell cycle phase (*pval<0.05,**pval<0.01), (b) positive control (*adjp<0.05,**adjp <0.01,***adjp<0.001), (c) untreated cells (pval<0.05); # denotes statistically significant values compared with cells treated with Tamoxifen in absence of SER (#pval<0.05)
Fig. 7 Effect of low doses of SER79 and SER68 on MCF7 and MCF10A cells. a Estrogen-starved MCF7 cells (48 h) were treated with Tamoxifen (5 μM) in presence of E2 (100nM) and SER79 (5 μM) or SER68 (20 μM, 5 μM). As positive control, the cells were treated with E2 and SER alone (without Tamoxifen, dotted line). After 72 h, cell viability was assessed by sulforhodamine B assay (see Methods). […] After 72 h, mRNA levels of CTGF were determined by qPCR (see Methods and Table 1). Data were normalized on Ribosomal Protein S23 (Rps23) gene as internal standard. Bars represent CTGF mRNA levels in MCF7 treated with SER relative to those in untreated cells (dotted line). c MCF10A non-cancer breast epithelial cells were treated with SER79 (5 μM) or SER68 (20 μM). After 72 h, cell viability was assessed by sulforhodamine B assay (see Methods).
Background: Quantitative PCR measures a nucleic acid by following its amplification.

Broadly, the IC50 is the point on the concentration scale where inhibition reaches its midpoint. Compound `O=C1C2C3C=CC(C3)C2C(=O)N1OCCN1CCN(c2ccc(Cl)c(Cl)c2)CC1` (stereo not drawn) [SER68] had an IC50 in the test with SKBR3 cells of 260 ± 94.9 µM. Also, the “change in protein levels of HT2C receptors upon SER treatment” value in the test on HT2C receptor (20 µM) is listed as “no difference in protein levels”. Moreover, the “reduction of CTGF expression” value with CTGF (SER 20 μM) was “≈ 50%”. For the same compound, in the test with CTGF, the “CTGF mRNA levels lower compared with untreated cells” value is given as “≈ 80%”.

In the case of `N#CN=C(NCCCN1CCN(C(c2ccc(F)cc2)c2ccc(F)cc2)CC1)c1ccccn1` [SER79], the “reduction of SKBR3 cell viability” value with SKBR3 cells (50 μM, 72 h) is on record as “≈ 50%”. The compound further showed an IC50 with SKBR3 cells of 53.6 ± 10.4 µM. Besides, the “change in protein levels of HT2C receptors upon SER treatment” value with HT2C receptor (5 µM) is recorded as “no difference in protein levels”. In addition, the “reduction of CTGF expression” value in the test on CTGF (SER 5 μM) is given as “≈ 30%”. The “CTGF mRNA levels lower compared with untreated cells” value in the test with CTGF was “≈ 60%”.

(Values after article PMC8845285, “Serotoninergic receptor ligands improve Tamoxifen effectiveness on breast cancer cells” (BMC Cancer, 2022).)
